# pIC50: −log10 of the molar value.
# Test system: 777334-354-R2-J4-PDC tumor spheroids with HUVEC/MSC, viability
# Test: Anticancer human tumor 777334-354-R2-J4-PDC patient-derived pancreatic adenocarcinoma cell line growth inhibition [GQUAD]
# Conditions: for pIC50: curve of first compound; for viability, T/C: stronger effect = lower value
# Outline: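 Multi-cell-type spheroids of tumor cells with HUVEC and mesenchymal stem cells, treated with drug combinations. Concentrations descend in half-log steps from near clinical Cmax, or from 10 microM where Cmax is unknown; viability read-out.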
# [1] = second compound 0.0316 µM, first compound 0.0316 µM
# [2] = second compound 0.0316 µM, first compound 0.1 µM
# [3] = second compound 0.0316 µM, first compound 0.316 µM
# [4] = second compound 0.0316 µM, first compound 1 µM
# [5] = second compound 0.0316 µM, first compound 3.16 µM
# [6] = second compound 0.0316 µM, first compound 10 µM
# [7] = second compound 0.1 µM, first compound 0.0316 µM
# [8] = second compound 0.1 µM, first compound 0.1 µM
# [9] = second compound 0.1 µM, first compound 0.316 µM
# [10] = second compound 0.1 µM, first compound 1 µM
# [11] = second compound 0.1 µM, first compound 3.16 µM
# [12] = second compound 0.1 µM, first compound 10 µM
# [13] = second compound 0.316 µM, first compound 0.0316 µM
# [14] = second compound 0.316 µM, first compound 0.1 µM
# [15] = second compound 0.316 µM, first compound 0.316 µM
# [16] = second compound 0.316 µM, first compound 1 µM
# [17] = second compound 0.316 µM, first compound 3.16 µM
# [18] = second compound 0.316 µM, first compound 10 µM
# [19] = second compound 1 µM, first compound 0.0316 µM
# [20] = second compound 1 µM, first compound 0.1 µM
# [21] = second compound 1 µM, first compound 0.316 µM
# [22] = second compound 1 µM, first compound 1 µM
# [23] = second compound 1 µM, first compound 3.16 µM
# [24] = second compound 1 µM, first compound 10 µM
# [25] = second compound 3.16 µM, first compound 0.0316 µM
# [26] = second compound 3.16 µM, first compound 0.1 µM
# [27] = second compound 3.16 µM, first compound 0.316 µM
# [28] = second compound 3.16 µM, first compound 1 µM
# [29] = second compound 3.16 µM, first compound 3.16 µM
# [30] = second compound 3.16 µM, first compound 10 µM
# [31] = second compound 10 µM, first compound 0.0316 µM
# [32] = second compound 10 µM, first compound 0.1 µM
# [33] = second compound 10 µM, first compound 0.316 µM
# [34] = second compound 10 µM, first compound 1 µM
# [35] = second compound 10 µM, first compound 3.16 µM
# [36] = second compound 10 µM, first compound 10 µM
# [37] = second compound 0.0316 µM, first compound 0.000999 µM
# [38] = second compound 0.0316 µM, first compound 0.00316 µM
# [39] = second compound 0.0316 µM, first compound 0.00999 µM
# [40] = second compound 0.0316 µM, first compound 0.0999 µM
# [41] = second compound 0.1 µM, first compound 0.000999 µM
# [42] = second compound 0.1 µM, first compound 0.00316 µM
# [43] = second compound 0.1 µM, first compound 0.00999 µM
# [44] = second compound 0.1 µM, first compound 0.0999 µM
# [45] = second compound 0.316 µM, first compound 0.000999 µM
# [46] = second compound 0.316 µM, first compound 0.00316 µM
# [47] = second compound 0.316 µM, first compound 0.00999 µM
# [48] = second compound 0.316 µM, first compound 0.0999 µM
# [49] = second compound 1 µM, first compound 0.000999 µM
# [50] = second compound 1 µM, first compound 0.00316 µM
# [51] = second compound 1 µM, first compound 0.00999 µM
# [52] = second compound 1 µM, first compound 0.0999 µM
# [53] = second compound 3.16 µM, first compound 0.000999 µM
# [54] = second compound 3.16 µM, first compound 0.00316 µM
# [55] = second compound 3.16 µM, first compound 0.00999 µM
# [56] = second compound 3.16 µM, first compound 0.0999 µM
# [57] = second compound 10 µM, first compound 0.000999 µM
# [58] = second compound 10 µM, first compound 0.00316 µM
# [59] = second compound 10 µM, first compound 0.00999 µM
# [60] = second compound 10 µM, first compound 0.0999 µM
# 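Also: spheroids exposed to compounds for 7 days before readout.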
smiles,measurement,setting,value
C=CC(=O)N1CCN(c2nc(=O)n(-c3c(C)ccnc3C(C)C)c3nc(-c4c(O)cccc4F)c(F)cc23)C(C)C1 (stereo not drawn) + Cc1[nH]c2ccc(F)cc2c1-c1nc2c3cccnc3c3ncccc3c2[nH]1,pIC50,second compound 0.0316 µM,< 5.00
same,pIC50,second compound 0.1 µM,< 5.00
same,pIC50,second compound 0.316 µM,< 5.00
same,pIC50,second compound 1 µM,< 5.00
same,pIC50,second compound 3.16 µM,> 7.50
same,pIC50,second compound 10 µM,> 7.50
same,"viability, T/C",[1],108%
same,"viability, T/C",[2],86.6%
same,"viability, T/C",[3],111%
same,"viability, T/C",[4],95.7%
same,"viability, T/C",[5],118%
same,"viability, T/C",[6],114%
same,"viability, T/C",[7],99.8%
same,"viability, T/C",[8],89.5%
same,"viability, T/C",[9],105%
same,"viability, T/C",[10],91.3%
same,"viability, T/C",[11],102%
same,"viability, T/C",[12],120%
same,"viability, T/C",[13],82.6%
same,"viability, T/C",[14],91.8%
same,"viability, T/C",[15],92%
same,"viability, T/C",[16],108%
same,"viability, T/C",[17],110%
same,"viability, T/C",[18],97.1%
same,"viability, T/C",[19],81.3%
same,"viability, T/C",[20],79.8%
same,"viability, T/C",[21],91.6%
same,"viability, T/C",[22],91.5%
same,"viability, T/C",[23],98.9%
same,"viability, T/C",[24],94.3%
same,"viability, T/C",[25],34.3%
same,"viability, T/C",[26],44.6%
same,"viability, T/C",[27],40.6%
same,"viability, T/C",[28],41%
same,"viability, T/C",[29],47%
same,"viability, T/C",[30],40.4%
same,"viability, T/C",[31],28.9%
same,"viability, T/C",[32],31.5%
same,"viability, T/C",[33],34.7%
same,"viability, T/C",[34],22.7%
same,"viability, T/C",[35],22.9%
same,"viability, T/C",[36],46.4%
CCc1c2c(nc3ccc(O)cc13)-c1cc3c(c(=O)n1C2)COC(=O)[C@]3(O)CC + Cc1[nH]c2ccc(F)cc2c1-c1nc2c3cccnc3c3ncccc3c2[nH]1,pIC50,second compound 0.0316 µM,8.25
same,pIC50,second compound 0.1 µM,8.21
same,pIC50,second compound 0.316 µM,8.25
same,pIC50,second compound 1 µM,8.46
same,pIC50,second compound 3.16 µM,> 9.00
same,pIC50,second compound 10 µM,> 9.00
same,"viability, T/C",[37],85.3%
same,"viability, T/C",[38],54.5%
same,"viability, T/C",[39],44.7%
same,"viability, T/C",[1],27.3%
same,"viability, T/C",[40],15%
same,"viability, T/C",[3],9.55%
same,"viability, T/C",[41],92.8%
same,"viability, T/C",[42],60.4%
same,"viability, T/C",[43],45%
same,"viability, T/C",[7],22.2%
same,"viability, T/C",[44],14.7%
same,"viability, T/C",[9],9.29%
same,"viability, T/C",[45],83.6%
same,"viability, T/C",[46],60.9%
same,"viability, T/C",[47],38.2%
same,"viability, T/C",[13],26.4%
same,"viability, T/C",[48],18.1%
same,"viability, T/C",[15],11.1%
same,"viability, T/C",[49],70.7%
same,"viability, T/C",[50],51.1%
same,"viability, T/C",[51],34.9%
same,"viability, T/C",[19],23.9%
same,"viability, T/C",[52],16.9%
same,"viability, T/C",[21],8.25%
same,"viability, T/C",[53],34.4%
same,"viability, T/C",[54],20.1%
same,"viability, T/C",[55],15.9%
same,"viability, T/C",[25],9.11%
same,"viability, T/C",[56],7.06%
same,"viability, T/C",[27],4.83%
same,"viability, T/C",[57],26%
same,"viability, T/C",[58],17.6%
same,"viability, T/C",[59],13.1%
same,"viability, T/C",[31],7.08%
same,"viability, T/C",[60],6.95%
same,"viability, T/C",[33],5.09%
Cc1cccc(N(C)C(=O)C2C(O)CCN2c2nc(C)cc(C(F)(F)F)c2C#N)c1 (stereo not drawn) + Cc1[nH]c2ccc(F)cc2c1-c1nc2c3cccnc3c3ncccc3c2[nH]1,pIC50,second compound 0.0316 µM,< 5.00
same,pIC50,second compound 0.1 µM,< 5.00
same,pIC50,second compound 0.316 µM,< 5.00
same,pIC50,second compound 1 µM,< 5.00
same,pIC50,second compound 3.16 µM,> 7.50
same,pIC50,second compound 10 µM,> 7.50
same,"viability, T/C",[1],112%
same,"viability, T/C",[2],104%
same,"viability, T/C",[3],95.3%
same,"viability, T/C",[4],95.5%
same,"viability, T/C",[5],94.5%
same,"viability, T/C",[6],92.9%
same,"viability, T/C",[7],97.6%
same,"viability, T/C",[8],97%
same,"viability, T/C",[9],92.1%
same,"viability, T/C",[10],93.4%
same,"viability, T/C",[11],103%
same,"viability, T/C",[12],101%
same,"viability, T/C",[13],95.3%
same,"viability, T/C",[14],88.5%
same,"viability, T/C",[15],101%
same,"viability, T/C",[16],95.8%
same,"viability, T/C",[17],95.8%
same,"viability, T/C",[18],91.2%
same,"viability, T/C",[19],78.8%
same,"viability, T/C",[20],85.4%
same,"viability, T/C",[21],83.3%
same,"viability, T/C",[22],71%
same,"viability, T/C",[23],90.4%
same,"viability, T/C",[24],87.2%
same,"viability, T/C",[25],35.1%
same,"viability, T/C",[26],36.6%
same,"viability, T/C",[27],37.3%
same,"viability, T/C",[28],31.1%
same,"viability, T/C",[29],33.5%
same,"viability, T/C",[30],46%
same,"viability, T/C",[31],32.4%
same,"viability, T/C",[32],34.5%
same,"viability, T/C",[33],35.7%
same,"viability, T/C",[34],30.5%
same,"viability, T/C",[35],25.7%
same,"viability, T/C",[36],38.8%
Cn1ncnc1[C@H]1c2n[nH]c(=O)c3cc(F)cc(c23)N[C@@H]1c1ccc(F)cc1 + Cc1[nH]c2ccc(F)cc2c1-c1nc2c3cccnc3c3ncccc3c2[nH]1,pIC50,second compound 0.0316 µM,< 6.50
same,pIC50,second compound 0.1 µM,< 6.50
same,pIC50,second compound 0.316 µM,< 6.50
same,pIC50,second compound 1 µM,< 6.50
same,pIC50,second compound 3.16 µM,> 9.00
same,pIC50,second compound 10 µM,> 9.00
same,"viability, T/C",[37],105%
same,"viability, T/C",[38],87.4%
same,"viability, T/C",[39],92%
same,"viability, T/C",[1],95.9%
same,"viability, T/C",[40],81.6%
same,"viability, T/C",[3],90.3%
same,"viability, T/C",[41],110%
same,"viability, T/C",[42],102%
same,"viability, T/C",[43],99.4%
same,"viability, T/C",[7],83.9%
same,"viability, T/C",[44],94.5%
same,"viability, T/C",[9],88.2%
same,"viability, T/C",[45],94.7%
same,"viability, T/C",[46],97.9%
same,"viability, T/C",[47],95.1%
same,"viability, T/C",[13],85.5%
same,"viability, T/C",[48],84%
same,"viability, T/C",[15],74.7%
same,"viability, T/C",[49],75.4%
same,"viability, T/C",[50],91.9%
same,"viability, T/C",[51],91.2%
same,"viability, T/C",[19],81.9%
same,"viability, T/C",[52],82.1%
same,"viability, T/C",[21],65.5%
same,"viability, T/C",[53],33.3%
same,"viability, T/C",[54],33.7%
same,"viability, T/C",[55],44.6%
same,"viability, T/C",[25],22.8%
same,"viability, T/C",[56],28.6%
same,"viability, T/C",[27],43.8%
same,"viability, T/C",[57],35.3%
same,"viability, T/C",[58],37.6%
same,"viability, T/C",[59],41.8%
same,"viability, T/C",[31],28.7%
same,"viability, T/C",[60],37.1%
same,"viability, T/C",[33],31.5%
